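Growth conditions: 96-well plates. Treatment: test compound, 48 hours, 5 concentrations. Analysis: linear interpolation between bracketing concentrations; unreached endpoints set to highest concentration. Definition used: TGI = concentration required for complete inhibition of growth.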 Where a SMILES comes first, the peptide text is derived from it. [ ]: non-standard residue; d: D form. The star is where a group is joined. Boc = CC(C)(C)OC(=O)*; Lac = C[CH](O)C(=O)O; OBn = c1ccc(CO*)cc1
What was measured:
Test in all cases: DTP human tumour cell line panel, 48 h
CCRF-CEM leukemia = system: CCRF-CEM leukemia
HL-60(TB) leukemia = system: HL-60(TB) leukemia
MCF7 breast = system: MCF7 breast
NCI-H522 lung = system: NCI-H522 lung
NCI/ADR-RES ovarian = system: NCI/ADR-RES ovarian
PC-3 prostate = system: PC-3 prostate
RXF 393 renal = system: RXF 393 renal
SF-295 CNS = system: SF-295 CNS
SNB-19 CNS = system: SNB-19 CNS
T-47D breast = system: T-47D breast
UO-31 renal = system: UO-31 renal
A549 NSCLC = system: A549 NSCLC
A498 renal = system: A498 renal

| Structure (SMILES) | TGI (CCRF-CEM leukemia) [µM] | TGI (HL-60(TB) leukemia) [µM] | TGI (MCF7 breast) [µM] | TGI (NCI-H522 lung) [µM] | TGI (NCI/ADR-RES ovarian) [µM] | TGI (PC-3 prostate) [µM] | TGI (RXF 393 renal) [µM] | TGI (SF-295 CNS) [µM] | TGI (SNB-19 CNS) [µM] | TGI (T-47D breast) [µM] | TGI (UO-31 renal) [µM] | TGI (A549 NSCLC) [µM] | TGI (A498 renal) [µM] |
| --- | --- | --- | --- | --- | --- | --- | --- | --- | --- | --- | --- | --- | --- |
| CC(OC(=O)C(Cc1ccccc1)NC(=O)C(Cc1ccccc1)NC(=O)OC(C)(C)C)C(=O)OCc1ccccc1 (stereo not drawn) (Boc-Phe-Phe-[Lac]-OBn; configuration not given here) | > 100 | > 100 | 54.6 | > 100 | > 100 | > 100 | > 100 | > 100 | > 100 | > 100 | > 100 |  |  |
| C/C(=C\CO)CC/C=C(\C)CNc1c(F)c(F)c(F)c(F)c1F | > 100 | 65.8 | 70.1 | 46.3 | 86.2 | 58.5 | 65.3 | 52.9 | 75 | > 100 | 80.8 | 94.8 |  |
| Cn1c(=O)c2c3ccccc3n(C)c2n(C)c1=O | > 100 | > 100 | > 100 | > 100 | > 100 |  | > 100 | > 100 | > 100 | > 100 | > 100 | > 100 | > 100 |
| C=CC[C@H]1O[Si](C(C)(C)C)(C(C)(C)C)[C@H](C)[C@H]1C | > 100 | > 100 | > 100 | > 100 | > 100 | > 100 |  | > 100 | > 100 | > 100 | > 100 | > 100 | > 100 |
| Cc1ccc(Cc2n[nH]c(=O)[nH]2)cc1 | > 100 | > 100 | > 100 |  | > 100 | > 100 |  | > 100 | > 100 | > 100 | > 100 | > 100 | > 100 |
| C1=CC2(C=CC13O[C@H](C1CCCCC1)[C@@H](C1CCCCC1)O3)O[C@H](C1CCCCC1)[C@@H](C1CCCCC1)O2 |  | > 50 | > 50 |  | > 50 | > 50 | > 50 | > 50 | > 50 | > 50 | > 50 | > 50 | > 50 |
| O=C1N(C2CCCCC2)C(=O)N1C1CCCCC1 | 2.07 | 0.365 | 48.6 | 3.66 | 14.9 | > 45.7 |  | 14.3 | 29.9 | 17.4 | 0.199 | > 54.5 | 2.37 |
| O=C(NC(=S)Nc1ccc(Br)cc1)c1ccc2c(c1)Sc1ccccc1S2 | 54.1 | 42.7 | > 100 | 52.6 | 55.9 | > 100 |  | 38.6 | 54.4 | 33.4 | 26.6 | 48.6 | 36.8 |
| CCCN(CCC)CCc1ccc(OC2=CCN(C)CC2)cc1 | > 100 | > 100 | > 100 | 67 | > 100 | > 100 | > 100 | > 100 | > 100 | > 100 | 88.3 | > 100 |  |
| NC(CCCCCCCCCCP(=O)(O)O)C(=O)O (stereo not drawn) | > 100 | > 100 | > 100 | > 100 | > 100 | > 100 | > 100 | > 100 | > 100 | > 100 | > 100 | > 100 |  |
| COc1ccc2c(c1)CC[C@@H]1[C@@H]2CC[C@]2(C)C(=O)/C(=C/c3ccc(N(C)C)cc3)C[C@@H]12 |  | > 100 |  |  | > 100 | > 100 | 87.2 | > 100 | > 100 | > 100 | > 100 | > 100 | > 100 |
| Cc1ccc(Nc2nc(=O)c3c4ccccc4n(C(=O)OC(C)(C)C)c3s2)cc1 | > 100 | 59 |  | 59.3 | 32.5 | > 100 |  | 65.6 | > 100 | > 100 | 22.8 | > 100 | > 100 |
| COc1ccc(/C=c2/sc3n(c2=O)C(c2ccccc2)C2(O)CCCCC2N=3)cc1 (stereo not drawn) | > 12.5 | > 12.5 | > 12.5 | > 12.5 |  | > 12.5 |  |  | > 12.5 | > 12.5 | > 12.5 | > 12.5 |  |
| CCN(CC)c1ccc2cc(C(N)=O)c(=N)oc2c1 | > 100 | > 100 |  |  | > 100 | 87.6 | > 100 |  | > 100 | 83.9 |  | > 100 | > 100 |
| COc1c2c(cc3c1C(=O)c1c(O)cccc1C3=O)CC(O)CC2 (stereo not drawn) | > 100 | > 100 | > 100 |  | > 100 | > 100 |  | 46.5 | 57.1 | 93.6 | > 100 | > 100 | > 100 |
| S=C(N1CCN(c2ccc(Cl)c(Cl)c2)CC1)N1CCN(c2ccc(Cl)c(Cl)c2)CC1 | 9.44 |  | 24 | 22.8 | 30.3 | 28.2 | 35.1 | 22.2 | 26.7 | 23.3 | 25.8 | 37.9 |  |
| Cc1c(-c2ccc(O)cc2)n(CCCCCCNCCOC(=O)NCCCc2ccc(N(CCCl)CCCl)cc2)c2ccc(O)cc12 | 6.67 |  | 2.23 | 3.44 |  | 11.4 |  | 6.85 | 28.1 | 5.8 |  | 3.93 | 28.7 |
| CN(C)CCCN1c2ccc([N+](=O)[O-])cc2CCc2cccc([N+](=O)[O-])c21 | 46.4 | 37 |  | 32.1 | 30.4 | 42.8 | 22.8 | 28.2 | 36.1 | 37.2 |  | 29.5 |  |
| NC1c2c(Br)sc(N3CCCC3)c2C(=O)C1O (stereo not drawn) | > 50 | > 50 | > 50 | > 50 | > 50 | > 50 |  | > 50 | > 50 | > 50 | > 50 | > 50 | > 50 |
| Cc1ccc(S(=O)(=O)NC(=O)NC(CC(N)=O)C(=O)O)cc1 (stereo not drawn) | > 100 | > 100 | > 100 | > 100 | > 100 | > 100 | > 100 | > 100 | > 100 | > 100 | > 100 | > 100 |  |
| NC1CC(=O)c2cscc21 (stereo not drawn) | 38.2 | 33.3 |  |  | > 100 | > 100 | > 100 | > 100 | > 100 | 40.3 | 22.1 | 41.7 |  |
| Cc1nnc2n1N=C(c1ccccc1)/C(=C/c1ccc(-c3ccc(Cl)cc3)o1)S2 | 16.4 | 28.4 | > 100 | 24.7 |  | 26 | 26.7 | 49.9 | 35 | 42.4 | 26.5 | 49.4 | 31.4 |
| COC(=O)NC(Nc1ccccn1)(C(F)(F)F)C(F)(F)F | > 100 | > 100 | > 100 | > 100 | > 100 |  | > 100 |  | > 100 | > 100 | > 100 | > 100 | > 100 |
| CCCCS(=O)(=O)CCC(N)P(=O)(O)O (stereo not drawn) | > 100 | > 100 | > 100 | > 100 | > 100 | > 100 |  | > 100 | > 100 | > 100 | > 100 | > 100 |  |
| CN(C)CCNc1ccc([N+](=O)[O-])c2sc3ccccc3c(=O)c12 | > 100 | 12.5 | 15.2 | 5.15 | 54.2 | 21.6 | 38.1 | > 100 | 43.2 | > 100 | 30.8 | 20.2 |  |
| O=C1OCN(c2ccccc2)C12CCN(Cc1ccccc1)CC2 | 48.7 | > 100 | > 100 |  | > 100 | > 100 | 33.2 | 31.1 | > 100 | 63.8 | > 100 | > 100 |  |
| C/C=C/C(C#N)(/C=C/c1ccccc1)OP1(=O)OC(c2ccccc2)C(C)N1C (stereo not drawn) | 28 | 32.9 | 49.4 | 42.2 |  | 33.3 | 38.5 | 31 | 42.1 | 68.9 | 32.6 | 45.4 | 35.6 |
| CN1Cc2ccccc2S(=O)(=O)n2cccc2C1=O | > 100 | > 100 | > 100 | > 100 |  | > 100 | > 100 | > 100 |  | > 100 | > 100 | > 100 | > 100 |
| O=[N+]([O-])c1cccc2nc3ccccc3c(NCCCCNc3c4ccccc4nc4cccc([N+](=O)[O-])c34)c12 | 0.0892 | 0.0246 | 0.412 | 0.0639 | 2.71 | > 100 | 0.117 | 1.02 | 0.152 | 1.04 | 0.398 | > 33.2 |  |

Source: PubChem BioAssay (NCI)
